Source: patent US11752091B2, “Composition for strengthening skin barrier, moisturizing skin or anti-aging” (COSMAX, INC., priority 2020, dated 2023)

Experiments:
Settings in all cases: 37° C., 48 hours (examined up to 72 hours); well color change to purple or red
S. infantis (CX-4) = assay: Substance utilization by isolated strains (BioLOG GP2, API 50); type: cell-based, Streptococcus infantis
Protocol: (§1) To analyze substance utilization by the isolated strains (Streptococcus pneumoniae, Streptococcus infantis, and Streptococcus mitis), tests were conducted in the following manner. BioLOG GP2 and API 50 were used in determining the substance utilization, and testing was performed using testing methods provided by Omnilog and Biomeriuse. The culturing temperature and media suitable to corresponding strains were selected, and 5 among cluster colonies incubated for 48 hours were taken and suspended in reagents before use. The inoculation amount was 150 μl. As the suspension, components of kits provided by various manufacturers were used. When the strains are yet to be inoculated, the suspension is in a transparent liquid phase. Inoculated plates and strips were incubated at 37° C. for 48 hours, and then the incubation of up to 72 hours was examined. Wells were in a transparent liquid phase at the time of inoculating, but the colors of the wells changed to purple or red, and the color-changed wells were determined to be positive.

S. mitis (CX-8) = assay: as above; type: cell-based, Streptococcus mitis
Protocol: as §1

S. pneumoniae (CX-2) = type: cell-based, Streptococcus pneumoniae
Protocol: as §1

Row | Compound | substance utilization, S. infantis (CX-4) (S. infantis (CX-4)) | substance utilization, S. mitis (CX-8) (S. mitis (CX-8)) | substance utilization, S. pneumoniae (CX-2) (S. pneumoniae (CX-2))
1 | [Cl-].[Na+] [1% NaCl, NaCl] | + | + | +
2 | CC(O)C(=O)[O-].[Na+] (stereo not shown) [1% Sodium Lactate, Sodium Lactate] | + | + | +
3 | OC[C@H]1O[C@@H](O[C@H]2[C@H](O)[C@@H](O)[C@H](O)O[C@@H]2CO)[C@H](O)[C@@H](O)[C@@H]1O [D-Cellobiose] | + | + | +
4 | O=P(O)(O)OC[C@H]1OC(O)(CO)[C@@H](O)[C@@H]1O (stereo partly drawn) [D-Fructose-6-Po4] | – | + | –
5 | OC[C@H]1O[C@H](OCC2O[C@@H](O)[C@H](O)[C@@H](O)[C@@H]2O)[C@H](O)[C@@H](O)[C@H]1O (stereo partly drawn) [D-Melibiose] | – | – | +
6 | OC[C@H]1O[C@H](OC[C@H]2O[C@H](O[C@]3(CO)O[C@H](CO)[C@@H](O)[C@@H]3O)[C@H](O)[C@@H](O)[C@@H]2O)[C@H](O)[C@@H](O)[C@H]1O [D-Raffinose] | – | – | +
7 | OC[C@H]1O[C@H](O[C@H]2[C@H](O)[C@@H](O)[C@H](O)O[C@@H]2CO)[C@H](O)[C@@H](O)[C@@H]1O [D-maltose] | + | + | +
8 | O=C1O[C@H]([C@@H](O)CO)[C@@H](O)[C@@H]1O [L-Galactonic Acid Lactone] | – | + | –
9 | [Cl-].[Li+] [Lithium Chloride] | – | + | –
10 | O=[Te]([O-])[O-].[K+].[K+] [Potassium Tellurite] | + | + | +
11 | CO[C@H]1/C=C/O[C@@]2(C)Oc3c(C)c([O-])c4c(O)c(cc(O)c4c3C2=O)NC(=O)/C(C)=C\C=C\[C@H](C)[C@H](O)[C@@H](C)[C@@H](O)[C@@H](C)[C@H](OC(C)=O)[C@@H]1C.[Na+] [Rifamycin SV] | + | + | –
12 | OC[C@H]1O[C@H](OC[C@H]2O[C@H](OC[C@H]3O[C@H](O[C@]4(CO)O[C@H](CO)[C@@H](O)[C@@H]4O)[C@H](O)[C@@H](O)[C@@H]3O)[C@H](O)[C@@H](O)[C@H]2O)[C@H](O)[C@@H](O)[C@H]1O [Stachyose] | + | + | +
13 | COc1cc(-c2ccc(-n3nc(-c4ccccc4)n[n+]3-c3ccccc3)c(OC)c2)ccc1-n1nc(-c2ccccc2)n[n+]1-c1ccccc1.[Cl-].[Cl-] [Tetrazolium Blue] | + | + | –
14 | D-Salicin | – | + | –
15 | D-Turanose | – | – | +
16 | Dextrin | + | + | +
17 | Pectin | + | + | +
18 | Tween 40 | + | – | +
